Assays:
[1] = Antioxidant action examined by using stable free radicals: reduction activity of DPPH (M. S. Blois method), absorbance at 517 nm; format: biochemical; conditions: 1 mM DPPH in ethanol, after 20 minutes, difference from solvent control (0.5% or less DMF), read-out: 50% radical eliminating concentration
Experimental: Test Example 1 (Antioxidant Action Examined by Using Stable Free Radicals)
Reduction activity of α,α-diphenyl-β-picrylhydrazyl (DPPH) which was a stable free radical was examined according to the M. S. Blois method (nature, vol. 181, page 1199, 1958) and used as an index to antioxidant action. Thus, specimens were added to 3 ml of a 1 mM DPPH solution in ethanol, and absorbance at a wavelength of 517 nm was measured using a spectrophotometer after 20 minutes. The difference in absorbance from the solvent control [0.5% or less of dimethylformamide (DMF)]was taken as the reduction activity.

[2] = Effects on formazan formation in the xanthine-xanthine oxidase-Nitrotetrazolium Blue system (superoxide anion radicals); format: biochemical; conditions: for Inhibition ratio (%) of formazan formation: pH 7.8, 30° C., 10 min; for inhibition of formazan formation (in words): from Table-4, 0.5 mM and 4 mM
Experimental: Test Example 2 (Effects on Formazan Formation in the Xanthine-xanthine Oxidase-Nitrotetrazolium Blue System)
Specimens were added to a 0.05 M phosphoric acid buffer solution (pH 7.8) containing xanthine, EDTA 2Na and Nitrotetrazolium Blue (NTB) so as to provide the respective final concentrations of 5×10^-5 M, 1×10^-4 M and 5×10^-4 M and warmed at 30° C. for 30 minutes. Xanthine oxidase (manufactured by Sigma Corp.) was added, and the resulting mixtures were warmed at 30° C. for 10 minutes to colorimetrically determine formazan formed by superoxide anion radicals. The inhibition ratio of formazan formation was determined from the results at concentrations of 0.5 mM and 4 mM of each specimen.

Row | SMILES | IC50 [1] | further results
1 | CCOC(=O)C(C)OC1=C(O)C(C2COC(C)(C)O2)OC1=O (stereo not shown) [Compound 204] | 25 µM | –
2 | CCOC(=O)CCCOC1=C(O)[C@@H]([C@@H](O)CO)OC1=O [Compound 306] | 29 µM | –
3 | CCCCOC1=C(O)[C@@H]([C@@H](O)CO)OC1=O [Compound 304] | 17 µM | –
4 | CCCCCCCCCCCCCCCCCCOC1=C(O)[C@@H]([C@@H](O)CO)OC1=O [Compound 301] | 28 µM | –
5 | O=C1O[C@H]([C@@H](O)CO)C(O)=C1OCc1ccccc1 [Compound 305] | 29 µM | –
6 | CCOC(=O)C(C)OC1=C(O)[C@@H]([C@@H](O)CO)OC1=O (stereo partly shown) [Compound 308] | 25 µM | –
7 | CCCCCCCCCCCCOC1=C(O)[C@@H]([C@@H](O)CO)OC1=O [Compound 302] | 26 µM | –
8 | O=C(O)CCCOC1=C(O)[C@@H]([C@@H](O)CO)OC1=O [Compound 307] | 33 µM | –
9 | CCCCOC(=O)COC1=C(O)[C@@H]([C@@H](O)CO)OC1=O [Compound 309] | 28 µM | –
10 | CCCCCCCCOC1=C(O)[C@@H]([C@@H](O)CO)OC1=O [Compound 303] | 26 µM | –
11 | CC(=O)COC1=C(O)[C@@H]([C@@H](O)CO)OC1=O [Compound 310, L-2-O-methylcarbomethylascorbic acid] | 17 µM | –

Continued, in another order:

Row | IC50 [1] | SMILES | further results
12 | 14 µM | CC(=O)COC1=C(O)[C@@H]([C@@H]2COC(C)(C)O2)OC1=O [Compound 206, L-5,6-O-isopropylidene-2-O-methylcarbomethylascorbic acid] | Inhibition ratio (%) of formazan formation ([2]; 0.5 mM): 17.8%; Inhibition ratio (%) of formazan formation ([2]; 4 mM): 55.5%; inhibition of formazan formation (in words) [2]: remarkably inhibited formazan formation
13 | 14 µM | CCCCOC1=C(O)[C@@H]([C@@H]2COC(C)(C)O2)OC1=O [Compound 201] | Inhibition ratio (%) of formazan formation ([2]; 0.5 mM): 9.1%; Inhibition ratio (%) of formazan formation ([2]; 4 mM): 19.1%; inhibition of formazan formation (in words) [2]: remarkably inhibited formazan formation
14 | 16 µM | CCOC(=O)CCCOC1=C(O)[C@@H]([C@@H]2COC(C)(C)O2)OC1=O [Compound 202] | –
15 | 30 µM | CCCCOC(=O)COC1=C(O)[C@@H]([C@@H]2COC(C)(C)O2)OC1=O [Compound 205] | –
16 | 28 µM | CC1(C)OC[C@@H]([C@H]2OC(=O)C(OCCCC(=O)O)=C2O)O1 [Compound 203] | –
